Measured values taken from US10883137B2, “Method to detect activity of a polymerase” (MAX-PLANCK-GESELLSCHAFT ZUR FÖRDERUNG DER WISSENSCHAFTEN …, priority 2015, dated 2021).

T1: human mitochondrial DNA-polymerase (POLG) (Homo sapiens, UniProt P54098)
T1 sequence (P54098 1-1239): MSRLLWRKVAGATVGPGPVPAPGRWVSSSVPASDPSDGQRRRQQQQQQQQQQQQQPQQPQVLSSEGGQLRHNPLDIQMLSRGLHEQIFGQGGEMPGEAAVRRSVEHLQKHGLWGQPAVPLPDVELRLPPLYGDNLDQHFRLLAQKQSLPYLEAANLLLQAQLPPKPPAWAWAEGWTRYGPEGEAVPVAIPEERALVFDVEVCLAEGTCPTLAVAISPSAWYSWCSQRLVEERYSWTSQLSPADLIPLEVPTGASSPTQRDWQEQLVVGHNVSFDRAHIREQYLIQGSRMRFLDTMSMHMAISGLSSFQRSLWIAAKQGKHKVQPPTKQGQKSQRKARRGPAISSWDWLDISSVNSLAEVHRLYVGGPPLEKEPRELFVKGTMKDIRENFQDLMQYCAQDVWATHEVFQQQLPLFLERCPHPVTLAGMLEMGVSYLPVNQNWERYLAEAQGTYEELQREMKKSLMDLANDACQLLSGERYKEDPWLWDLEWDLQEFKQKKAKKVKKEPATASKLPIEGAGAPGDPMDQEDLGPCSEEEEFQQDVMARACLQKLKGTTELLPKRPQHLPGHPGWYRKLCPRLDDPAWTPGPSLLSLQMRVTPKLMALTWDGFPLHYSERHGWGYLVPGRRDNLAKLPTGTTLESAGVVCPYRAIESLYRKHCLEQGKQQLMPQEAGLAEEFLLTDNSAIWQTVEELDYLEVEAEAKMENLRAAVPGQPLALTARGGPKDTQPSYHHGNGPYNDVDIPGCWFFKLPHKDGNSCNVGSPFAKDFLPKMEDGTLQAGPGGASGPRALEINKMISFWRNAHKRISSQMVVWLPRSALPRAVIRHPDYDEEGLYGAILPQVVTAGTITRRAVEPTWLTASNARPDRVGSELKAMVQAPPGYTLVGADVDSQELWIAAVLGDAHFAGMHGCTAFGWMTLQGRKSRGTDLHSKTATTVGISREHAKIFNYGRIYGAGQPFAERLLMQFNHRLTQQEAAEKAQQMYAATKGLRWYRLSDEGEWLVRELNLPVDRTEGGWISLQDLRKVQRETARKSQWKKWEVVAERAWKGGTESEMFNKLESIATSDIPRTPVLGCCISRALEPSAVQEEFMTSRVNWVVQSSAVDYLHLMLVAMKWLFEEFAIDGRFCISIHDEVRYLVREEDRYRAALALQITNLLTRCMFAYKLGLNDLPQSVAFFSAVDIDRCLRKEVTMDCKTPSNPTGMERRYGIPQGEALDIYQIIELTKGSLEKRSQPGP
T1 sequence (Q9UHN1 1-485 partner): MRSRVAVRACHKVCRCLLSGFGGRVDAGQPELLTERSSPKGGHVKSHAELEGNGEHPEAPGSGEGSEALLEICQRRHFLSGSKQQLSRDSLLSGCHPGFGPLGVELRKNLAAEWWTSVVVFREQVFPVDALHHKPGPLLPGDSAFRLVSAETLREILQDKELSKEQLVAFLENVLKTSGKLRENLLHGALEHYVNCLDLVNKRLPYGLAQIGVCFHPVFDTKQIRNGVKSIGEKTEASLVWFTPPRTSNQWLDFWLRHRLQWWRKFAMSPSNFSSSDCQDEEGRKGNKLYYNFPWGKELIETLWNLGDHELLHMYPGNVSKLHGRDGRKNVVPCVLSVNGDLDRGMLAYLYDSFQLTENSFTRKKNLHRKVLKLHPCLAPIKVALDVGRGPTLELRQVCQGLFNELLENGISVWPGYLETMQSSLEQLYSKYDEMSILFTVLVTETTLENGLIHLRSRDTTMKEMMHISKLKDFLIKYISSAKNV

B1: TEFM: mitochondrial transcription elongation factor (TEFM, NP_078959.3) (protein, UniProt Q96QE5 36-360, looked up)
Transcription elongation …: KSTTPKKITPNVTFCDENAKEPENALDKLFSSEQQASILHVLNTASTKELEAFRLLRGRRSINIVEHRENFGPFQNLESLMNVPLFKYKSTVQVCNSILCPKTGREKRKSPENRFLRKLLKPDIERERLKAVNSIISIVFGTRRIAWAHLDRKLTVLDWQQSDRWSLMRGIYSSSVYLEEISSIISKMPKADFYVLEKTGLSIQNSSLFPILLHFHIMEAMLYALLNKTFAQDGQHQVLSMNRNAVGKHFELMIGDSRTSGKELVKQFLFDSILKADPRVFFPSDKIVHYRQMFLSTELQRVEELYDSLLQAIAFYELAVFDSQP

Key:
Format in all cases: biochemical
[1] = biological target: human POLRMT (mitochondrial DNA-directed RNA polymerase) (Homo sapiens, UniProt O00411); experiment: Inhibitor activity determination, mitochondrial RNA-polymerase, 384-well dose-response format; conditions: for IC50: 384-well, 8-point dilution series, 200 μM to 5 μM, 500 μM dNTPs; for Hill slope: four-parameter non-linear regression fit; for res. activity at highest conc.: highest assay conc. 200 μM; for res. activity at highest conc. / res. activity at lowest conc.: relative to positive control; for res. activity at lowest conc.: lower limit of 5 μM
Text: The assay protocol largely corresponds to the setup described in example 1 (Determination of activity of mitochondrial RNA-polymerase using the same initiator and probes than in example 1). For determination of the activity, however, the reaction mix always contains the nucleotide triphosphate mix, to enforce potential competition between inhibitor compound and substrate. Negative control samples are set up such that no template DNA (pUC-LSP) is included in the reaction mixture.
Pre-diluted protein samples are mixed with the dNTP-mixture in a reaction buffer, containing 10 mM TrisHCl pH 7.5, 10 mM MgCl2, 40 mM NaCl, 2 mM GSH, 0.01% (w/v) Tween-20 and 0.1 mg/mL BSA, to yield final assay concentrations of 7.5 nM (POLRMT), 90 nM (TFAM), 20 nM (TFB2M) and 500 μM (dNTPs). 5 μL of this mix are dispensed, depending on the chosen microtiter plate format, using multi-channel pipettes or a Thermo Multidrop® dispenser into the wells of a microtiter plate and incubated at room-temperature (RT) for 10 minutes.
Equal amounts of DMSO without any compound are added to positive control samples. An incubation step at RT for 10 minutes is applied to allow binding of compounds.
The enzymatic reaction is started by the addition of 5 μL of a mix of template DNA (pUC-LSP) in reaction buffer to a final concentration of 0.5 nM. The following mixing, incubation and detection steps correspond to the steps described in example 1.

[2] = biological target: T1, human mitochondrial DNA-polymerase (POLG); experiment: Inhibitor activity determination using human mitochondrial DNA-polymerase, 384-well dose-response format
Text: The assay protocol largely corresponds to the setup described in example 1 (Determination of activity of mitochondrial RNA-polymerase using the same initiator and probes than in example 1). For determination of the activity of the mitochondrial replication, however, the two-subunit complex of the mitochondrial DNA-polymerase (POLG, NM_002693.2, NM_007215.3), the […] TWINKLE (NM_021830.4) and mitochondrial single-strand binding protein (SSBP1, NM_001256510.1) are used. Also, the reaction mix always contains the substrate nucleotide mix, to enforce potential competition between inhibitor compound and substrate.
For DNA-replication the template is generated using a circular, single-stranded DNA formed from pBlueskript SK+. To this circular, ssDNA, a primer with 42-nucleotide poly-T is annealed to form a fork structure. To make dsDNA, the primer is elongated with KOD polymerase, which synthesizes DNA around the entire circle, until again it reaches the primer. At this point DNA-synthesis stops and a double-stranded DNA template of about 3000 bp with an artificial replication fork is formed.
For activity determination, negative control samples are set up such that no template DNA is included in the assay mixture. Assay components are mixed in a buffer containing 25 mM TrisHCl pH 8.0, 5 mM MgCl2, 2 mM GSH, and 0.1 mg/mL BSA, to yield final assay concentrations of 30 nM POLG, 15 nM TWINKLE, 20 nM SSBP1, 250 μM dNTPs, 4 mM ATP as well as the two DNA-probes at 3 nM concentration each.
5 μL of this mix are dispensed, depending on the chosen microtiter plate format, using multi-channel pipettes or a Thermo Multidrop® dispenser into the wells of a microtiter plate and incubated at room-temperature (RT) for 10 minutes.
Chemical compounds under scrutiny in the assay are applied using contact-free acoustic droplet-dispensing (Labcyte Echo®) from 10 mM compound stocks (in 100% DMSO) in an appropriate 8-point dilution series to ensure accurate fitting of the resulting activity data (i.e. upper and lower asymptote reached). Equal amounts of DMSO without any compound are added to positive control samples. An incubation step at RT for 10 minutes is applied to allow binding of compounds.
The enzymatic reaction is started by the addition of 5 μL of a mix template DNA in reaction buffer to a final concentration of 5 nM. Following incubation for 1 h at 37° C., the reaction is stopped by addition of a detection mix, containing 3 nM streptavidin-coupled Eu-cryptate pre-incubated with an excess of an unspecific random oligonucleotide, in 20 mM Tris-HCl pH 8.0, 400 mM NaCl and 50 mM EDTA. HTRF-signals are measured following over-night incubation at room-temperature. […]

[3] = biological target: mitochondrial RNA-polymerase (POLRMT) (Homo sapiens, UniProt O00411); experiment: Activity of mitochondrial RNA-polymerase with and without TEFM (in vitro transcription, FRET detection); conditions: TEFM 100 nM; product formation quenched after 2 h
Experimental: FIG. 8: is displaying the result of a comparative study of the effect of adding TEFM to the in vitro transcription reaction, as described in example 6. Two transcription reactions were set up either with or without the addition of TEFM (100 nM) and product formation quenched after 2 h. The specific FRET signal of the reaction without TEFM was used as a reference and normalized to 100%, while for the reaction including TEFM a signal increase of around 18% (±10%) was measured under the chosen conditions.
To enhance the enzymatic turnover and, thus, specific signal intensity of the mitochondrial in vitro transcription reaction, the mitochondrial transcription elongation factor (TEFM, NP_078959.3.) can be added to the assay reagent mixture.
The general workflow of the assay and composition of assay reagents are described in Posse et al (Nucl. Acids Res. 2015). A linearized pUC18 plasmid comprising the human mitochondrial light-strand promotor sequence (LSP) is used as transcription plasmid.
Adaptations made to the original protocol relate to the different detection method applied and correspond to the set-up described in example 1.

human POLRMT (mitochondrial DNA-directed RNA polymerase), sequence (O00411 42-1230): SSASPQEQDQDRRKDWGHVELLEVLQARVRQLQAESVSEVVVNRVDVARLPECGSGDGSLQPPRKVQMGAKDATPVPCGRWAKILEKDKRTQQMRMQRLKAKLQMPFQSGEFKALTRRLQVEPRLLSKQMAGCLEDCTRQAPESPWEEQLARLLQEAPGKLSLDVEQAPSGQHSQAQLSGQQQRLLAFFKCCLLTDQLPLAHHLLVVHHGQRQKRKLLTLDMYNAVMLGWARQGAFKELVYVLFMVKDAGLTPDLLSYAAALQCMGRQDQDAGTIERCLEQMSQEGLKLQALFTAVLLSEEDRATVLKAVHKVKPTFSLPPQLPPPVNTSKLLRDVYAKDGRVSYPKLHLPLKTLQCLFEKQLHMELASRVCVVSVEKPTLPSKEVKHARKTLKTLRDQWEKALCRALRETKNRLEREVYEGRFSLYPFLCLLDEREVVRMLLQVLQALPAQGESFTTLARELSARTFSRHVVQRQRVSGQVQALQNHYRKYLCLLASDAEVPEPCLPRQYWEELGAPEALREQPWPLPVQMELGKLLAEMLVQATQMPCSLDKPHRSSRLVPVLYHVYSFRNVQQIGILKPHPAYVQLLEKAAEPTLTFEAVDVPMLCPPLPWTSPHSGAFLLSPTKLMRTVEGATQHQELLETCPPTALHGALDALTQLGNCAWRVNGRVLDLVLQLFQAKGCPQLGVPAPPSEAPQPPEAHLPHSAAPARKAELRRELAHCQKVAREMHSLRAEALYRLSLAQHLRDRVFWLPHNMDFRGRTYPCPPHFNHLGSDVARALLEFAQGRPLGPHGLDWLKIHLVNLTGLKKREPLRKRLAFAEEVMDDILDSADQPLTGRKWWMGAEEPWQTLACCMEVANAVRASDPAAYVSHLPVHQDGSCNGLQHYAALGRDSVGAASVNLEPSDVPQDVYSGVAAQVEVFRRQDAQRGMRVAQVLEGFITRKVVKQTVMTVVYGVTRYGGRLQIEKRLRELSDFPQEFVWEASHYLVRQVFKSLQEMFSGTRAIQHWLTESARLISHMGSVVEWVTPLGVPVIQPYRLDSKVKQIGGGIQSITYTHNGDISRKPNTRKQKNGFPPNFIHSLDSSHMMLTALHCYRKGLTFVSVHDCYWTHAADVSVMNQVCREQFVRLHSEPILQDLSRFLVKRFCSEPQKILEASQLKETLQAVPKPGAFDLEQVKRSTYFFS
mitochondrial RNA-polymerase (POLRMT), sequence (O00411 42-1230): as above

Row | IC50 [1] | Hill slope [1] | res. activity at highest conc. [1] | res. activity at lowest conc. [1] | IC50 ([2]; 384-well, 200 μM to 5 μM, 250 μM dNTPs) | Hill slope ([2]; four-parameter non-linear regression fit) | res. activity at highest conc. ([2]; highest assay conc. 200 μM) | res. activity at lowest conc. ([2]; lower limit of 5 μM) | signal increase of specific FRET signal versus reaction without TEFM (100%) [3] | Molecule
1 | 84.5 µM | −0.85 | 8.6% | 102% | – | – | – | – | – | 2′methyl/OH-O-UTP
2 | 73.4 µM | −2.15 | 46.9% | 88.32% | – | – | – | – | – | C[C@@]1(F)[C@H](O)[C@@H](COP(=O)(O)OP(=O)(O)OP(=O)(O)O)O[C@H]1n1cnc2c(=O)[nH]c(N)nc21 [2′methyl/F-GTP]
3 | – | −2.05 | 65.5% | 96.5% | – | – | – | – | – | C[C@@]1(O)[C@H](O)[C@@H](COP(=O)(O)OP(=O)(O)OP(=O)(O)O)O[C@H]1n1cnc2c(=O)[nH]c(N)nc21 [2′methyl/OH-GTP]
4 | – | – | – | – | 54.1 µM | −0.9462 | 22.6% | 92.79% | – | Cc1cn([C@H]2C[C@H](O)[C@@H](COP(=O)(O)OP(=O)(O)OP(=O)(O)O)O2)c(=O)[nH]c1=S [4-Thiothymidine-5′-Triphosphate]
5 | – | – | – | – | – | – | – | – | around 18% | B1
